Laboratory results published in ChEMBL document CHEMBL3045764, “Synthesis of Both Enantiomers of Altholactone, Isoaltholactone and 5-Hydroxygoniothalamin from Tri-O-acetyl-D-glucal, and Their Biological Activities” (J Pestic Sci, 2001).

Columns and labels:
Lactuca sativa = assay: Inhibition of Lactuca sativa (lettuce) seed germination assessed as elongation of root by measuring germination rate (reference value: 75%); format: functional
[1] = Toxicity in Artemia salina (brine shrimp) assessed as death rate after 1.5 days (reference value: 5%); format: organism-based; conditions: in vivo, read-out: Activity

Compound | inhibition (INH) (Lactuca sativa) [%] | mortality at 36 h [1] [%]
O=C1C=C[C@H]2O[C@H](c3ccccc3)[C@@H](O)[C@H]2O1 [ENT-ISOALTHOLACTONE] | 69 | 8
O=C1C=C[C@@H]2O[C@H](c3ccccc3)[C@H](O)[C@@H]2O1 [(+)-ISOALTHOLACTONE] | 25 | 13
O=C1C=C[C@H]2O[C@@H](c3ccccc3)[C@H](O)[C@H]2O1 [ENT-ALTHOLACTONE] | 5 | 31
O=C1C=C[C@H]2O[C@H](c3ccccc3)[C@H](O)[C@@H]2O1 | 56 | 31
O=C1C=C[C@@H]2O[C@H](c3ccccc3)[C@@H](O)[C@@H]2O1 [ALTHOLACTONE] | 50 | 40
O=C1C=C[C@H]2O[C@H](c3ccccc3)[C@@H](O)[C@@H]2O1 | 63 | 48
